Test results reported in ChEMBL document CHEMBL6127037, “Design, synthesis, and biological evaluation of imidazolylacetophenone oxime derivatives as novel brain-penetrant agents for Alzheimer's disease treatment” (Eur J Med Chem, 2024).
Active and inactive are the calls of the source. The rule behind the calls is not given here.

Tests used:
[1] = Cytotoxicity against LPS stimulated mouse BV-2 cells assessed as cell survival at 10 uM by MTT assay; format: toxicity, cell-based; details: LPS-stimulated BV-2 cells, read-out: Activity
BV-2 [2] = assay: Anti-neuroinflammatory activity against LPS-stimulated mouse BV-2 cells assessed as inhibition of NO production at 1 uM; format: functional; design: scale not given: the % may be the effect or the level left
BV-2 [3] = assay: Anti-neuroinflammatory activity against LPS-stimulated mouse BV-2 cells assessed as inhibition of NO production at 10 uM; format: functional; design: scale not given: the % may be the effect or the level left
[4] = Cytotoxicity against […] cells assessed as cell survival at 20 uM by MTT assay; format: toxicity, cell-based, Rattus norvegicus; details: read-out: Survival
[5] = molecular target: Acetylcholinesterase (Electrophorus electricus) (UniProt O42275); assay: Inhibition of electric eel AChE at 20 uM using […] as substrate pretreated for 20 mins prior to DTNB addition for 30 mins followed by substrate addition and measured after 45 mins by Ellman's method relative to control; details: time 95.0 min
[6] = Cytotoxicity against mouse HT-22 cells assessed as cell survival at 20 uM by MTT assay; format: toxicity, cell-based; details: read-out: Survival
HT-22 = assay: Neuroprotective activity against RSL3 induced ferroptosis in mouse HT-22 cells assessed as increase in cell viability at 10 uM preincubated for 4 hrs followed by RSL3 stimulation and measured after 24 hrs by MTT assay (reference value: 52.1%); format: functional; details: time 28 hrs
PC12 = assay: Neuroprotective activity against 6-OHDA induced oxidative damage in […] cells assessed as increase in cell viability preincubated for 4 hrs followed by 6-OHDA stimulation and measured after 24 hrs by MTT assay (reference value: 48.6%); format: functional, cell-based; details: Rattus norvegicus, dose 1-10 µM, time 28.0 hrs
[7] = molecular target: Amyloid-beta precursor protein (Homo sapiens) (UniProt P05067); assay: Inhibition of self-induced amyloid beta (1 to 42 residues) (unknown origin) aggregation at 5 to 20 uM by thioflavin T based fluorescence analysis; details: dose 5-20 µM
BV-2 [8] = assay: Anti-neuroinflammatory activity against LPS-stimulated mouse BV-2 cells assessed as inhibition of NO production; format: functional, cell-based
BV-2 [9] = assay: Antiinflammatory activity against LPS induced mouse BV-2 cells assessed as increase in IL-10 expression at 0.5 to 2.5 uM incubated for 24 hrs by ELISA; format: functional, cell-based; details: dose 0.5-2.5 µM
BV-2 [10] = assay: Antiinflammatory activity against LPS induced mouse BV-2 cells assessed as decrease in TNFalpha expression incubated for 24 hrs by ELISA; format: functional, cell-based; details: dose 0.1-2.5 µM
BV-2 [11] = assay: Antiinflammatory activity against LPS induced mouse BV-2 cells assessed as increase in arginase-1 expression at 0.5 to 2.5 uM incubated for 24 hrs by ELISA; format: functional, cell-based; details: dose 0.5-2.5 µM
BV-2 [12] = assay: Antiinflammatory activity against LPS induced mouse BV-2 cells assessed as decrease in PGE2 expression incubated for 24 hrs by ELISA; format: functional, cell-based; details: dose 0.1-2.5 µM
BV-2 [13] = assay: Antiinflammatory activity against LPS induced mouse BV-2 cells assessed as decrease in COX2 expression incubated for 24 hrs by Western blotting analysis; format: functional, cell-based; details: dose 0.1-2.5 µM
BV-2 [14] = assay: Antiinflammatory activity against LPS induced mouse BV-2 cells assessed as decrease in iNOS expression incubated for 24 hrs by Western blotting analysis; format: functional, cell-based; details: dose 0.1-2.5 µM

Sequence of Amyloid-beta precursor protein (Homo sapiens) (P05067 whole entry, the tested form may be a part): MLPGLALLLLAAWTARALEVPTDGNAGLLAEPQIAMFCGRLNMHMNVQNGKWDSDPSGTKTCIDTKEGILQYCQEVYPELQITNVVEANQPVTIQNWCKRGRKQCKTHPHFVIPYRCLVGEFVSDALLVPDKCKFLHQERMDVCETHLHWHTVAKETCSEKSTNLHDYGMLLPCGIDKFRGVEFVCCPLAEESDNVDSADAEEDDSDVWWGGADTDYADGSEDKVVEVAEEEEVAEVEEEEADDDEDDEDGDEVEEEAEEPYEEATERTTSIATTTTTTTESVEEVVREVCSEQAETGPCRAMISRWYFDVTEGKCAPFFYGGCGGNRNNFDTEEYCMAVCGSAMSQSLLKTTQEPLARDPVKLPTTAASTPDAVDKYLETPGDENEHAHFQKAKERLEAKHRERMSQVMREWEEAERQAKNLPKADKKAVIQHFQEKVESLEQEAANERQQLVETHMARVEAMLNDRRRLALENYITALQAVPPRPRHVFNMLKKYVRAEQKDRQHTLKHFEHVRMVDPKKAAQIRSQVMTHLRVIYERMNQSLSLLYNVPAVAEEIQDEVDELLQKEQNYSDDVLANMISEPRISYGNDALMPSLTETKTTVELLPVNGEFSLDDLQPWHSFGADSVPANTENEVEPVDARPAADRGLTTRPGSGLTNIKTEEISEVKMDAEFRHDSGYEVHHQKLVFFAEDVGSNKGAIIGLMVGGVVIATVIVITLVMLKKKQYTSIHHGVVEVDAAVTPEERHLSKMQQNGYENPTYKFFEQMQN
Sequence of Acetylcholinesterase (Electrophorus electricus) (O42275 24-633 limits assumed): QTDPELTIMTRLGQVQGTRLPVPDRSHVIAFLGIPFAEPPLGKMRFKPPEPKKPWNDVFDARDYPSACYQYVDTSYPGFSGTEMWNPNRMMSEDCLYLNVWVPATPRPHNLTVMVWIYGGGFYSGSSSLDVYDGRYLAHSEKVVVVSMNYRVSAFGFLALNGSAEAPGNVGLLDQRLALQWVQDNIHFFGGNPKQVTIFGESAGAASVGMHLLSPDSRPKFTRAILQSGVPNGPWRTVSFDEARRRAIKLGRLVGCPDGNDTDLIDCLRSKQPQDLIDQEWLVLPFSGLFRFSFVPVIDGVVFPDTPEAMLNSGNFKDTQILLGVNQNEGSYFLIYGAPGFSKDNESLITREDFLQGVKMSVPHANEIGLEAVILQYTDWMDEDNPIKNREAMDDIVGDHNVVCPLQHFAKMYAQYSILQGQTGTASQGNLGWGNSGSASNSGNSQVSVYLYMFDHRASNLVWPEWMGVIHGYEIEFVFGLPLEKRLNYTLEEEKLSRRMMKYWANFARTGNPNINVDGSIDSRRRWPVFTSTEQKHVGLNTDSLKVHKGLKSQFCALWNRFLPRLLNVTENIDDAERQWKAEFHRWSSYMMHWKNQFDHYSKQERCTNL

| SMILES | viability at 10 µM [1] | Activity (BV-2 [2]) | Activity (BV-2 [3]) | further results |
| --- | --- | --- | --- | --- |
| CN(C)c1ccc(/C(Cn2ccnc2)=N/OCc2ccccc2)cc1 | 97.3% | 27.6% | 48.7% |  |
| C#CCO/N=C(\Cn1ccnc1)c1ccc(N(C)C)cc1 | 103% | 30.9% | 49.6% | viability at 20 µM [4]: > 95%; inhibition [5]: 70.3%; viability at 20 µM [6]: > 90%; Activity (HT-22): 62.5%; Activity (PC12): Dose-Dependent Effect; inhibition [7]: Active; EC50 (BV-2 [8]): 6780 nM |
| CN(C)c1ccc(/C(Cn2ccnc2)=N/OC/C=C/c2ccccc2)cc1 | 98.1% | 22.5% | 40.7% |  |
| COC(Cn1ccnc1)c1ccc2c(c1)OCO2 (racemic) | 76.1% | 17.9% | 28% |  |
| O=c1c(O)c(-c2ccc(O)c(O)c2)oc2cc(O)cc(O)c12 [QUERCETIN] | 91.3% |  | 52.8% |  |
| O=C(O/N=C(\Cn1ccnc1)c1ccc2c(c1)OCO2)C12CC3CC(CC(C3)C1)C2 | 113% | 44.1% | 88.4% |  |
| CN(C)c1ccc(/C(Cn2ccnc2)=N/OC(=O)CCc2ccccc2)cc1 | 92.5% | 31.5% | 31.4% |  |
| CN(C)c1ccc(/C(Cn2ccnc2)=N/OC(=O)/C=C/c2ccccc2)cc1 | 92.8% | 39.2% | 41.8% |  |
| OC(Cn1ccnc1)c1ccc2c(c1)OCO2 (racemic) | 97.1% | 21.4% | 68.9% |  |
| FCCO/N=C(\Cn1ccnc1)c1ccc2c(c1)OCO2 | 116% | 69.5% | 99.4% | viability at 20 µM [4]: > 95%; Activity (BV-2 [9]): Active; inhibition [5]: 60.1%; viability at 20 µM [6]: > 90%; Activity (HT-22): 66.6%; Activity (BV-2 [10]): Dose-Dependent Effect; Activity (BV-2 [11]): Active; Activity (PC12): Dose-Dependent Effect; inhibition [7]: Active; EC50 (BV-2 [8]): 490 nM; Activity (BV-2 [12]): Dose-Dependent Effect; Activity (BV-2 [13]): Dose-Dependent Effect; Activity (BV-2 [14]): Dose-Dependent Effect |
| C#CCO/N=C(\Cn1cnc(CO)c1C)c1ccc2c(c1)OCO2 | 75.8% | 27.6% | 48.7% |  |
| COc1ccc(/C=C/C(=O)O/N=C(\Cn2ccnc2)c2ccc3c(c2)OCO3)cc1 | 95.9% | 45.6% | 91.3% |  |
| C=C(C)CO/N=C(\Cn1ccnc1)c1ccc(N(C)C)cc1 | 98.6% | 28.1% | 46.3% |  |
| O=C(/C=C/c1ccc2c(c1)OCO2)O/N=C(\Cn1ccnc1)c1ccc2c(c1)OCO2 | 85.2% | 35.8% | 73% |  |
| O=C(CCCCCO/N=C(\Cn1ccnc1)c1ccc2c(c1)OCO2)NO | 111% | 42.7% | 82.9% | viability at 20 µM [4]: > 95%; viability at 20 µM [6]: > 90%; Activity (HT-22): 66.7%; Activity (PC12): Dose-Dependent Effect; inhibition [7]: Active; EC50 (BV-2 [8]): 1090 nM |
| FCCCO/N=C(\Cn1ccnc1)c1ccc2c(c1)OCO2 | 87.7% | 31.1% | 65% |  |
